Test results published in US7662778B2, “Histone deacetylase inhibitor and process for producing the same” (Riken, priority 2003, dated 2010).
Like-named read-outs stand apart in the source and are kept apart here. Where a SMILES comes first, the peptide text is derived from it. [ ]: non-standard residue; d: D form. The star is where a group is joined. hLys(Nζ-OH,Nζ-For) = N[C@@H](CCCCCN(O)C=O)C(=O)O; Asu = N[C@@H](CCCCCC(=O)O)C(=O)O; NH(2-NH2-phenyl) = Nc1ccccc1N*; dPip = O=C(O)[C@H]1CCCCN1; X1 = Oc1ccccc1N*; X3 = Sc1ccccc1N*

Experiments:
human HDAC4 = molecular target: T1, human HDAC4 (Homo sapiens, UniProt P56524); assay: HDAC inhibitory activity in vitro (coumarin-labeled acetylated histone peptide), HDAC4; format: biochemical
T1 construct: FLAG; made in house; host or cells: 293T cells, transient transfection; anti-FLAG immunoprecipitation and FLAG peptide elution
T1 sequence (P56524 whole entry): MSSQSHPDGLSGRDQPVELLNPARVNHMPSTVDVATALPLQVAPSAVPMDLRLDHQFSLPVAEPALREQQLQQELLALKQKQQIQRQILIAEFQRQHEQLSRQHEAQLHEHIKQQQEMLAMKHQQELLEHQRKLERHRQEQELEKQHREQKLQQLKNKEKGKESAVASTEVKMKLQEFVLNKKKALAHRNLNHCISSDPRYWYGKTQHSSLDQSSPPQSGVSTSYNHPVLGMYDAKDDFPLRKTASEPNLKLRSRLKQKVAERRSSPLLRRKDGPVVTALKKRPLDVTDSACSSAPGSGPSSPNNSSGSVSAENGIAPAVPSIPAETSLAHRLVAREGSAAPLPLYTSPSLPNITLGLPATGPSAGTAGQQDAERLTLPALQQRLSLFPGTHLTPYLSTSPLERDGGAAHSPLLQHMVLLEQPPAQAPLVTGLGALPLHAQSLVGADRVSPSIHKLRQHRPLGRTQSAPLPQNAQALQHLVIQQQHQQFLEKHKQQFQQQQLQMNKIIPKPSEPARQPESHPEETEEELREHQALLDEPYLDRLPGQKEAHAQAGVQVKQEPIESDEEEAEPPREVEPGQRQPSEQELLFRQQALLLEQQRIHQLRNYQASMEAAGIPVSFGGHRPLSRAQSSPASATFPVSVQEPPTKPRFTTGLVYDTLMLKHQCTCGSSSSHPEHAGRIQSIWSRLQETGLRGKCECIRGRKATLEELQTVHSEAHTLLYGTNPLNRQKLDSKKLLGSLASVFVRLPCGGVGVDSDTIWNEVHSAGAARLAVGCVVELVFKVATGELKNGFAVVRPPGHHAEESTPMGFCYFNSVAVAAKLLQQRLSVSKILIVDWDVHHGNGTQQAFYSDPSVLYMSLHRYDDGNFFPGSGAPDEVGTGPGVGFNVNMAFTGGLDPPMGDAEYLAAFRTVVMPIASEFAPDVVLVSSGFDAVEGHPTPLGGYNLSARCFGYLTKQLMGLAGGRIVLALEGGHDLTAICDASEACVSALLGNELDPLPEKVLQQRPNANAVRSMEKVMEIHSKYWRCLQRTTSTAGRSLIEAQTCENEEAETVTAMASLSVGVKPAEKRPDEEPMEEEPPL

human HDAC1 = molecular target: T2, human HDAC1 (Homo sapiens, UniProt Q13547); assay: HDAC inhibitory activity in vitro (coumarin-labeled acetylated histone peptide), HDAC1; format: biochemical
T2 construct: FLAG; made in house; host or cells: 293T cells, transient transfection; anti-FLAG immunoprecipitation and FLAG peptide elution
T2 sequence (Q13547 whole entry): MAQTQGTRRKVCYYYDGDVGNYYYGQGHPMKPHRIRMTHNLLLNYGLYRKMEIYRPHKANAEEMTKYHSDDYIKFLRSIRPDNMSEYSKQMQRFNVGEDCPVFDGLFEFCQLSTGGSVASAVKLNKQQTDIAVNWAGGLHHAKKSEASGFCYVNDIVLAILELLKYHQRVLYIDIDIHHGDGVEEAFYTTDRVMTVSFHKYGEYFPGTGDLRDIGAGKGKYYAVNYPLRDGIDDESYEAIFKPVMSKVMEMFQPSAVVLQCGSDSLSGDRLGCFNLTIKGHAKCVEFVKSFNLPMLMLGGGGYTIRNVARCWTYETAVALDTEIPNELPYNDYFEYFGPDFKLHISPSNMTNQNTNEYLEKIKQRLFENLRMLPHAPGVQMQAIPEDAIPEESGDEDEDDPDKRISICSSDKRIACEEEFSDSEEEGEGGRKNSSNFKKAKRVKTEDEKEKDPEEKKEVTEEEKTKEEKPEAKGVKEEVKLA

[1] = tested on: human wild-type p21 promoter; assay: p21 promoter-inducing activity (luciferase) in MFLL-9 cells; format: cell-based
Procedure: The HDAC inhibitory activity in vivo was measured using p21 promoter-inducing activity as an index, as shown below. The MFLL-9 cells employed for the experiments stably maintained fusion genes of human wild-type p21 promoter and luciferase (Dr. B. Vogelstaein). Using phenol red-free DMEM medium comprising 10% FBS, cultivation was carried out in a steam-saturated incubator at 37° C. with 5% carbon dioxide. The MFLL-9 cells were plated at a density of 85,000 cells/well on a 96-well microtiter plate, each in 99 μl of the above-mentioned medium. These were then cultivated for six hours. One μl of test compound solution was added to each well, which was then cultured for another 18 hours.
The intensity of luminescence caused by the product of the enzyme reaction for intracellular luciferase expression was measured using Luc Lite (Packard BioScience Company).
HDAC inhibitory activity in an in vivo system was measured using p21 promoter induction as index. The experimental method followed that of Example 11.

mouse HDAC6 = molecular target: T3, mouse HDAC6 (Mus musculus, UniProt Q9Z2V5); assay: HDAC inhibitory activity in vitro (coumarin-labeled acetylated histone peptide), HDAC6; format: biochemical
T3 construct: HA; made in house; host or cells: 293T cells, transient transfection; anti-HA immunoprecipitation and HA peptide elution
T3 sequence (Q9Z2V5 1-1149): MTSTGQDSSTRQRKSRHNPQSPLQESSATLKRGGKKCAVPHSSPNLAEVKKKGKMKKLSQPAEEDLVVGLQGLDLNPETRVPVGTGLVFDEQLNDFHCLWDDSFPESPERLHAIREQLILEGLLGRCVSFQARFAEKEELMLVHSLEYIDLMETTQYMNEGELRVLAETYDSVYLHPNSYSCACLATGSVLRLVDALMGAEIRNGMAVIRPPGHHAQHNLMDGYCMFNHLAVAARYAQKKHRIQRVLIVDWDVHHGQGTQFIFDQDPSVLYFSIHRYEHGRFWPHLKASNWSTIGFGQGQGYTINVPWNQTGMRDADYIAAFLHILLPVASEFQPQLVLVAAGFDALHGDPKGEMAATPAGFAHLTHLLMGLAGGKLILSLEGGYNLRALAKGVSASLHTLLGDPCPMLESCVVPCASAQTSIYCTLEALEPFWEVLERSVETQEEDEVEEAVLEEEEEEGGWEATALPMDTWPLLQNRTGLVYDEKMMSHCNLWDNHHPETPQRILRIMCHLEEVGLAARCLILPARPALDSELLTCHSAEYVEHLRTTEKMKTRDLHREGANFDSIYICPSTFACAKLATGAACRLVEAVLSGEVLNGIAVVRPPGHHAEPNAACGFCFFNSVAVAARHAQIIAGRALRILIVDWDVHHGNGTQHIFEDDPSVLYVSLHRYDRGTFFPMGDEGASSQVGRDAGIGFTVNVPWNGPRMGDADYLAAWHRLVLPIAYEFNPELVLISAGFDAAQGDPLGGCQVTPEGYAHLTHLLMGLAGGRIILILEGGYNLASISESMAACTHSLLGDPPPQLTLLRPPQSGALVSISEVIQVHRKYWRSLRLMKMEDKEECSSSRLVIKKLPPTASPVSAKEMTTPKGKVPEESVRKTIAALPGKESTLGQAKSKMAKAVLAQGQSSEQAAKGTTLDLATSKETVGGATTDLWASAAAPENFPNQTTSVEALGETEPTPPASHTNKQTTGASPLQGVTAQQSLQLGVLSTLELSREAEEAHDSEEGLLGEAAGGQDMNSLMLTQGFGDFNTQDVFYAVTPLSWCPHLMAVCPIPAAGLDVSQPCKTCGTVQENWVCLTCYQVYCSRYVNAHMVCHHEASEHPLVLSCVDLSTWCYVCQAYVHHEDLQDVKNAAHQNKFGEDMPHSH

[2] = amide bond, 12-membered ring, HATU/DIEA, DMF, 25.0 °C
[3] = Table 3, method of Example 11, 50% of the maximum activity observed in TSA
[4] = Table 3, method of Example 11, read-out: IC50(μM) HDAC4
[5] = Table 3, method of Example 11, read-out: IC50(μM) HDAC1
[6] = Table 1, MFLL-9 cells, 18 hours, concentration corresponding to 50% of the maximum active value for TSA
[7] = Table 1, 37° C., 30 minutes, read-out: IC50 (μM) HDAC4
[8] = Table 1, 37° C., 30 minutes, read-out: IC50 (μM) HDAC1
[9] = Table 1, 37° C., 30 minutes, read-out: IC50 (μM) HDAC6

CC[C@H](C)[C@@H]1NC(=O)[C@@H](Cc2ccc(OC)cc2)NC(=O)[C@H](CCCCCC(=O)Nc2ccccc2S)NC(=O)[C@H]2CCCN2C1=O [OATP, cyclo(L-Asu(OATP)-D-Tyr(Me)-L-Ile-D-Pro)] (cyclo([Asu](X3)[dY](Me)I[dP]))
IC50 (human HDAC4): 0.23 µM | IC50 (human HDAC1): 2.03 µM | EC50 [1, 3]: > 100 µM | IC50 (mouse HDAC6): 408 µM

CC[C@H](C)[C@@H]1NC(=O)[C@@H](Cc2ccc(OC)cc2)NC(=O)[C@H](CCCCCC(=O)Nc2ccccc2N)NC(=O)[C@H]2CCCN2C1=O [OPD, cyclo(L-Asu(OPD)-D-Tyr(Me)-L-Ile-D-Pro)] (cyclo([Asu](NH(2-NH2-phenyl))[dY](Me)I[dP]))
IC50 (human HDAC4; [4]): 15.7 µM | IC50 (human HDAC1; [5]): 4.04 µM | EC50 [1, 3]: 30.9 µM | IC50 (mouse HDAC6; Table 3, method of Example 11, read-out: IC50(μM) HDAC6): 321 µM

CC[C@H](C)[C@@H]1NC(=O)[C@@H](Cc2ccc(OC)cc2)NC(=O)[C@H](CCCCCC(=O)Nc2ccccc2O)NC(=O)[C@H]2CCCN2C1=O [OAPOH, cyclo(L-Asu(OAPOH)-D-Tyr(Me)-L-Ile-D-Pro)] (cyclo([Asu](X1)[dY](Me)I[dP]))
IC50 (human HDAC4; [4]): 0.23 µM | IC50 (human HDAC1; [5]): 1.22 µM | EC50 [1, 3]: 55.1 µM

CC[C@H](C)[C@@H]1NC(=O)[C@@H](Cc2ccc(OC)cc2)NC(=O)[C@H](CCCCCN(O)C=O)NC(=O)[C@H]2CCCCN2C1=O [N(OH)COH Cyclo(X-y(Me)-I-pip), n = 5, cyclo(-L-Hly(For, OH)-D-Tyr(Me)-L-Ile-D-Pip-)] (cyclo(I[dPip][hLys(Nζ-OH,Nζ-For)][dY](Me)))
IC50 (human HDAC4): 0.13 µM | IC50 (human HDAC1): 0.067 µM | EC50 [1, 6]: 3.73 µM | IC50 (mouse HDAC6): 0.18 µM

CC[C@H](C)[C@@H]1NC(=O)[C@@H](Cc2ccc(OC)cc2)NC(=O)[C@H](CCCCCN(C=O)OCc2ccccc2)NC(=O)[C@H]2CCCN2C1=O [cyclo(-L-Hly(For, OBzl)-D-Tyr(Me)-L-Ile-D-Pro-)]
ring closure, isolated yield ([2]; from H-dTyr(Me)-Ile-dPro-Hly(For,OBzl)-OH, 0.96 mM): 66%

CC[C@H](C)[C@@H]1NC(=O)[C@@H](Cc2ccc(OC)cc2)NC(=O)[C@H](CCCCCCN(O)C=O)NC(=O)[C@H]2CCCCN2C1=O [N(OH)COH Cyclo(X-y(Me)-I-pip), n = 6]
IC50 (human HDAC4; [7]): 7.02 µM | IC50 (human HDAC1; [8]): 6.36 µM | IC50 (mouse HDAC6; [9]): 12.2 µM

CC[C@H](C)[C@@H]1NC(=O)[C@@H](Cc2ccc(OC)cc2)NC(=O)[C@H](CCCCCN(C=O)OCc2ccccc2)NC(=O)[C@H]2CCCCN2C1=O [cyclo(-L-Hly(For, OBzl)-D-Tyr(Me)-L-Ile-D-Pip-)]
ring closure, isolated yield ([2]; from H-dTyr(Me)-Ile-dPip-Hly(For,OBzl)-OH?, 0.39 mM): 28%

CC[C@H](C)[C@@H]1NC(=O)[C@@H](Cc2ccc(OC)cc2)NC(=O)[C@H](CCCCS(=O)(=O)CC(=O)C(F)(F)F)NC(=O)[C@H]2CCCN2C1=O [Stfk]
EC50 [1, 6]: > 100 µM

CC[C@H](C)[C@@H]1NC(=O)[C@@H](Cc2ccc(OC)cc2)NC(=O)[C@H](CCCCCN(O)C=O)NC(=O)[C@H]2CCCN2C1=O [N(OH)COH Cyclo(X-y(Me)-I-p), n = 5] (cyclo([hLys(Nζ-OH,Nζ-For)][dY](Me)I[dP]))
IC50 (human HDAC4; [7]): 0.074 µM | IC50 (mouse HDAC6; [9]): 0.78 µM

CC[C@H](C)[C@@H]1NC(=O)[C@@H](Cc2ccc(OC)cc2)NC(=O)[C@H](CCCCCC(=O)O)NC(=O)[C@H]2CCCN2C1=O [COOH, cyclo(L-Asu-D-Tyr(Me)-L-Ile-D-Pro)] (cyclo([Asu][dY](Me)I[dP]))
IC50 (human HDAC4; [7]): 5.69 µM | IC50 (human HDAC1; [8]): 4.07 µM | EC50 [1, 6]: > 100 µM | IC50 (mouse HDAC6; [9]): > 500 µM

CC[C@H](C)[C@@H]1NC(=O)[C@@H](Cc2ccc(OC)cc2)NC(=O)[C@H](CCCCCSC)NC(=O)[C@H]2CCCN2C1=O [SMe]
EC50 [1, 6]: > 100 µM
